Data as given in US8790883B2, “Methods of identifying NF-κB inhibitors” (priority 2003, dated 2014).
* marks the point of attachment. BODIPYFLEthylmaleimide = Cc1cc(C)n2c1C=C1C=CC(CCC(=O)NCCN3C(=O)CC(*)C3=O)=[N+]1[B-]2(F)F

Columns and labels:
[1] = tested on: LPS-induced NF-κB activation; assay: NF-κB inhibition assay, first procedure: LPS-induced NF-κB dependent β-galactosidase reporter in 70Z/3-C3 cells; assay type: cell-based, murine
Description: The resulting cell line, 70Z3-C3, was incubated for 2 hours in the absence or in the presence of 20 μM of antennapedia peptide (Ant), or BODIPY-labeled antennapedia peptide (BODIPY-Ant), or BODIPY-labeled antennapedia peptide coupled to CC2 (BODIPY-Ant-CC2) or LZ (BODIPY-Ant-LZ) peptides, After peptide internalization, cells were treated for 5 hours with LPS (3 μg/ml, (+) in left panel) or untreated (right panel and (−) in left panel) and the NF-κB activity was measured by β-galactosidase assay. Error bars represent the standard deviation of three separate experiments. (B) Concentration dependence of inhibition of LPS-induced NF-κB activation by BODIPY-Ant-CC2 peptide (left panel) or BODIPY-Ant-LZ peptide (right panel). Cells were treated as in (A) but with different concentration of peptide as indicated. The potential of each peptide to inhibit LPS-induced NF-κB activation was measured by determining the IC50 value that correspond to 50% inhibition of LPS-induced NF-κB activation as compared to the control (no peptide) (C). (D) Effect of the N-fusion sequence of antennapedia on the inhibition of NF-κB activation. Control (no peptide) or CC2, or LZ peptides, with (BODIPY-ANT-CC2, BODIPY-ANT-LZ) or without the antennapedia sequence at the N-terminus (CC2, LZ) were incubated for 2 hours with 70Z3-C3 cells followed with (+) or without (−) the LPS-treatment for 3 hours. NF-κB activity was then measured by β-galactosidase assay.
In a first procedure 2.2×10^5 70Z/3-C3 cells in 220 μl of RPMI 1640 supplemented with 10% fetal calf serum (FCS) and 50 μM β-mercaptoethanol were placed in a 96-well plate and incubated with various concentrations of peptide (0 to 20 μM) at 37° C. in 5% CO2 incubator. After two hours an equal portion (100 μl) of each cell sample transferred in two wells containing each 10^5 cells. One aliquot of cells was then treated for 5 hours with lipopolysaccharides from Salmonella abortus (Sigma) at 0.5 μg/ml final concentration, and the other one left-treated. After 5 hours, cells were centrifuged at 400×g for 5 min at room temperature and the cell pellets were washed three times with cold PBS (250 μl) by centrifugation. Cells were then lysed in the lysis buffer (25 mM tris-phosphate buffer at pH 7.8 containing 8 mM magnesium chloride, 1 mM dithioerythreitol, 1% Triton X-100, 15% glycerol and a protease inhibitor mixture (Roche)), and samples were centrifuged at 4° C. for 20 min to clarify the lysate. The supernatant was then kept on ice, and 30 μl was then assayed to measure the β-galactosidase activity with a plate luminometer (Berthold) using the GALACTON-STAR™ as chemiluminescent substrate (BD Biosciences Clontech, Bronstein et al., 1989). Background of reaction was measured by mixing for 1 hour 30 μl of lysis buffer with the reaction buffer (196 μl) and the GALACTON-STAR™ substrate (4 μl) provided by BD Biosciences. In a second procedure and a more stringent assay, 70Z/3-C3 cells (2.2×105 in 220 μl medium) were centrifuged at 400×g at room temperature after peptide internalization for 2 hours, and cell pellets were washed three times with 200 μl of PBS by centrifugation. Cells were then diluted three times with complete medium, and allowed to grow for at least 24 hours. The following steps are identical to the first procedure.
To analyze the inhibition potential of LPS-induced NF-κB activation by cell permeable BODIPY-Ant-CC2 and BODIPY-Ant-LZ peptides, the present inventors stably transfected the murine pre-B 70Z3 cell line with p12XlacZ-kB, which bears the β-galactosidase reporter gene under the control of the NF-κB transcription factor.

[2] = tested on: LPS-induced NF-κB activation; assay: More stringent NF-κB inhibition assay, second procedure: peptide internalization, washing, 24 h growth, then LPS; assay type: cell-based, murine; details: 10 μM peptide, LPS 5 h after 24 h growth
Description: Left panels show a helical wheel diagram of CC2 (A) and LZ (B) peptides. The view is from the top the molecule. The (a) through (g) positions, which are an essential feature of coiled coil sequence (Vinson, 2002, Mol. Cell. Biol.) represent sequential positions in each peptide sequence. The first (a) and fourth (d) positions that are generally occupied by hydrophobic amino acids constitute the hydrophobic core for parallel as well as antiparallel-coiled coils. Mutations that were introduced in (a) positions of the CC2 variant (BODIPY-Ant-CC2 (Mu); shown as residues 6-40 of SEQ ID NO:3, with glycine mutations corresponding to residues 6-40 of SEQ ID NO:5) or in (d) positions of the LZ variant (BODIPY-Ant-(Mu) are shown. In the right panels, 70Z3-C3 cells were incubated for 2 hours in the absence (control) or in the presence of 10 μM of cell permeable wild type (BODIPY-Ant-CC2 (WT)) or mutant (BODIPY-Ant-CC2 (Mu)) CC2 peptides (A) or wild type (BODIPY-Ant-LZ (WT)) or mutant (BODIPY-Ant-(Mu)) LZ peptides (B). The cells were then extensively washed to remove the excess peptide which had not been internalized and the cells were then diluted three times and allowed to grow for 24 hours before treatment for 5 hours with (+) or without LPS (−). NF-κB activity was measured using the β-galactosidase assay. Error bars represent the standard deviation of two independent experiments.
(A) Sequence alignment of the NEMO-derived LZ (residues 301-336 of SEQ ID NO: 12) and the GCN4 peptides (residues 23-55 of SEQ ID NO:8). Both coiled-coil motifs were aligned using clustalX. Identical and similar amino acid residues (shaded) are indicated by (!) or (*), respectively. (B) Overview and helical wheel diagram of the GCN4 coiled-coil (top view). The amino-acid sequence of GCN4 is shown with its corresponding [a-g] positions and residues that differ from the corresponding NEMO-derived LZ sequence are boxed according to their degree of conservation. Identical (open square) and similar residues (open triangle) are indicated. […] NF-κB activity was measured using the b-galactosidase assay. […]

[3] = biological target: T1, CC2 peptide (minimal oligomerization domain of NEMO) (Mus musculus, UniProt O88522); assay: Fluorescence anisotropy titration with CC2 peptide; assay type: binding, murine
T1 construct: made in house; host or cells: chemical solid-phase synthesis (Fmoc/tBu), no expression host
T1 sequence (O88522 253-287): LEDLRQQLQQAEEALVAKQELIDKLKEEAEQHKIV
Description: (A) Direct titration of BODIPY-Ant-CC2 (1 μM) with CC2 by fluorescence anitropy. The concentration of CC2 was determined by amino acid analysis. Anisotropy values of BODIPY-Ant-CC2 in milliunits (mA) were plotted against an increasing concentration of the CC2 peptide. […] The two dashed lines represent a stoichiometric titration and intersect at an CC2 concentration of […]. Given the 1 μM concentration of the BODIPY-Ant-CC2, this gives a complex stoechiometrie of 0.8. (B) Direct titration of BODIPY-Ant-LZ (0.1 μM) with CC2 by fluorescence anitropy. […]
Anisotropy measurements were performed with a PTI QUANTAMASTER™ fluorometer equipped with polarizers for the excitation and emission beams. […] Steady-state fluorescence anisotropy was expressed as millianisotropy (mA) and was calculated according to the equations: (1) A=(IVV−GIVH)/(IVV+2GIVH); (2) G=IHV/IHH.; where A is anisotropy, G is a correction factor for wavelength-dependent distortion and I is the fluorescence intensity component (subscript referring to the vertical and horizontal positioning at the excitation and emission polarizers, respectively). […] The dissociation constant parameter was estimated by globally fitting the anisotropy data to binding isotherm equation as described in Agou et al. (J Biol Chem. 2004 Jul. 2; 279(27):27861-9) using KALEIDAGRAPH™ nonlinear regression software (Synergy Software, reading PA). […]

70Z/3-C3 cells = assay: FACS analysis of cellular uptake of BODIPY-labelled peptides; details: 0.2, 2 or 20 μM, 5 h, 37° C.
Description: (A) Cellular delivery of NEMO peptides mediated by conjugation with the Antennapedia peptide.
0.5×10^6 70Z/3-C3 cells in 0.5 ml were incubated at 37° C. for different times and with various concentrations of peptides as indicated in the Figure legends. The cell suspension was centrifugated at 1,000×g at room temperature and the cell pellet was then washed three times with PBS buffer (1 ml), and finally was resuspended with 500 μl of PBS buffer containing 0.1% sodium azide. Fluorescence analysis was performed with a FACSCalibur (BD Biosciences) and a minimum of 15,000 events per sample was selected. All experiments were performed in duplicates.

[4] = Binding of NLM peptides, Hill coefficient calculation of cooperativity indices
Description: The present inventors compared NLM-DR to the corresponding NLM peptide by measuring the respective cooperativity indices, which evidence an advantage of NLM-DR mutated peptide over the wild-type.
The calculation of the “cooperativity indice” by means of Hill coefficient is based on the following formula Boundmax×L^n/(KD^n+L^n)
Wherein • Boundmax is the maximum concentration of the bound ligand, • L is the concentration of the free ligand, • n is the cooperativity indice and • KD, is the affinity constant of the ligand by the protein.

[5] = Circular dichroism studies of helix stability; assay type: physicochemical
Description: From circular dichroism studies (CD), it appears that CC2 and LZ peptides adopt a helicoidal structure, depending on their concentration. […] RMN and Rayon X Diffraction studies have confirmed the structure of CC2.

Substance | LPS-induced NF-κB activation in presence of peptide ([1]; 20 μM peptide 2 h, LPS (3 μg/ml) 5 h, 70Z3-C3 cells) | Reduction of NF-κB activity as compared with a control peptide ([1]; 20 μM peptide, B lymphocytes stimulated by LPS) | IC50 ([1]; 70Z3-C3 cells, peptide 2 h, then LPS 5 h, β-galactosidase assay, read-out: IC50, 50% inhibition of LPS-induced NF-κB activation as compared to the control (no peptide)) | Reduction of NF-κB activation [2] | Kd [3] | Binding stoichiometry of complex with CC2 ([3]; 1 μM BODIPY-Ant-CC2 titrated with CC2) | Dependency of intracellular concentration on incubated concentration (70Z/3-C3 cells) | Affinity relative to wild-type NLM peptide, without accounting for cooperativity [4] | Helix stability by circular dichroism [5]
Ac-C(BODIPYFLEthylmaleimide)RQIKIWFQNRRMKWKKSKGMQLEDLRQQLQQAEEALVAKQELIDKLKEEAEQHKIV-NH2 [BODIPY-Ant-CC2 (WT)] | decreased significantly | 70% | 22 µM | 1.7 fold | 15.2 µM | 0.8 | linear dependancy |  | 
LKAQADIYKARFQAERHAREK [NLM-DR] |  |  |  |  |  |  |  | 75 times | helix more stable than the wild-type peptide
